Data published in patent US20060178323A1, “Methods for the treatment of chronic pain and compositions therefor” (priority 2002, published 2006).

Tests used:
Type in all cases: in vivo
[1] = system: mechanical hyperalgesia in the Seltzer model of neuropathic pain in the rat; assay: Seltzer model, development of mechanical hyperalgesia, repeated administration of Compound A
Description: (§1) Two animal models of chronic neuropathic pain may be used that involve some form of peripheral nerve damage. In the Seltzer model (Seltzer et al. (1990) Pain 43: 205-218) rats are anaesthetised and a small incision made mid-way up one thigh (usually the left) to expose the sciatic nerve. The nerve is carefully cleared of surrounding connective tissues at a site near the trochanter just distal to the point at which the posterior biceps semitendinosus nerve branches off the common sciatic nerve. A 7-0 silk suture is inserted into the nerve with a ⅜ curved, reversed-cutting mini-needle, and tightly ligated so that the dorsal ⅓ to ½ of the nerve thickness is held within the ligature. The muscle and skin are closed with sutures and clips and the wound dusted with antibiotic powder. In sham animals the sciatic nerve is exposed but not ligated and the wound closed as in nonsham animals.
(§2) In all chronic pain models (inflammatory and neuropathic) mechanical hyperalgesia is assessed by measuring paw withdrawal thresholds of both hindpaws to an increasing pressure stimulus using an Analgesymeter (Ugo-Basile, Milan). Mechanical allodynia is assessed by measuring withdrawal thresholds to non-noxious mechanical stimuli applied with von Frey hairs to the plantar surface of both hindpaws. Thermal hyperalgesia is assessed by measuring withdrawal latencies to a noxious thermal stimulus applied to the underside of each hindpaw. With all models, mechanical hyperalgesia and allodynia and thermal hyperalgesia develop within 1-3 days following surgery and persist for at least 50 days. For the assays described herein, drugs may be applied before and after surgery to assess their effect on the development of hyperalgesia, particularly approximately 14 days following surgery, to determine their ability to reverse established hyperalgesia.
(§3) The percentage reversal of hyperalgesia is calculated as follows: [formula] In the experiments disclosed herein, Wistar rats (male) are employed in pain models described above. Rats weigh approximately 120-140 grams at the time of surgery. All surgery is performed under enflurane/O2 inhalation anaesthesia. In all cases the wound is closed after the procedure and the animal allowed to recover. In all pain models employed, after a few days in all but the sham operated animals, a marked mechanical and thermal hyperalgesia and allodynia develops in which there is a lowering of pain threshold and an enhanced reflex withdrawal response of the hind-paw to touch, pressure or thermal stimuli. […] In the majority of animals the toes of the affected hind paw are held together and the foot turned slightly to one side; in some rats the toes are also curled under. The gait of the ligated rats varies, but limping is uncommon. […] The rats tend to be very sensitive to touch and may vocalise. Otherwise the general health an condition of the rats is good.
(§4) The effect of Compound A on mechanical hyperalgesia and allodynia is examined in the Seltzer model of neuropathic pain in the rat (Seltzer et al, 1990) as described above. With this model mechanical hyperalgesia and allodynia is induced in the ipsilateral (ligated) hindpaw approximately 1 day following surgery and persists for some weeks. Mechanical hyperalgesia is assessed by measuring paw withdrawal thresholds of both hindpaws to an increasing pressure stimulus using an Analgesymeter (Ugo-Basile, Milan). Mechanical allodynia is assessed by measuring withdrawal thresholds to non-noxious mechanical stimuli applied with von Frey hairs to the plantar surface of both hindpaws.
Experimental Protocol: The effect of Compound A on the development of mechanical hyperalgesia is tested by administering the compound or vehicle (20% cremaphor/water) orally twice daily for 7 days starting on the day of surgery. Prior to surgery paw withdrawal thresholds of ipsilateral (ligated) and contralateral (non-ligated) paws are approximately 100 g. […]

[2] = system: mechanical hyperalgesia in the Seltzer model of neuropathic pain in the rat; assay: Seltzer model, perioperative administration of Compound A on neuropathic hyperalgesia; settings: for Paw withdrawal threshold: ipsilateral paw
Description: as §1, §2, §3, §4
Compound A also affects the development of hyperalgesia following peri-operative dosing. […] The effect of the two doses of Compound A lasted for approximately 7 days by which time the degreee of hyperalgesia is similar to that seen in vehicle treated animals.
All animals received administration of vehicle or compound 1 h prior to surgery (pre) and 5 h following surgery (post).

[3] = system: mechanical hyperalgesia in the Seltzer model of neuropathic pain in the rat; assay: Seltzer model, established neuropathic hyperalgesia, repeated administration of Compound A
Description: as §1, §2, §3, §4
Inhibition of MMP7 may also reduce established mechanical hyperalgesia. 7 days following ligation ipsilateral paw withdrawal thresholds are reduced to approximately 65 g compared to contralteral readings of approximately 100 g, indicating mechanical hyperalgesia. Compound A (3 and 30 mg/kg) or vehicle (20% cremaphor/water) is then administered orally twice daily for 10 days. […]

CC[C@H](C(=O)NO)[C@H](C(=O)N1CCCC[C@H]1C(=O)NC(C)C)c1ccc(Cl)cc1 [Compound A, (S)-1-[(2S,3S)-2-(4-Chloro-phenyl)-3-hydroxycarbamoyl-pentanoyl]-piperidine-2-carboxylic acid isopropylamide]
ipsilateral withdrawal thresholds versus vehicle treated animals ([1]; 3 days after the end of compound administration): remain elevated above those of vehicle treated animals
withdrawal thresholds of contralateral paws ([1]; contralateral (non-ligated) paw, following surgery, vehicle or compound administration, throughout the experiment): do not significantly change
Paw withdrawal threshold ([1]; ipsilateral paw, 3 mg/kg orally twice daily for 7 days from day of surgery, day 1 of treatment): 72.5 ± 2.8 g
Paw withdrawal threshold ([1]; ipsilateral paw, 3 mg/kg orally twice daily for 7 days from day of surgery, day 2 of treatment): 76.7 ± 3.1 g
Paw withdrawal threshold ([1]; ipsilateral paw, 3 mg/kg orally twice daily for 7 days from day of surgery, day 3 of treatment): 78.3 ± 2.5 g
Paw withdrawal threshold ([1]; ipsilateral paw, 3 mg/kg orally twice daily for 7 days from day of surgery, day 4 of treatment): 83.3 ± 2.8 g
Paw withdrawal threshold ([1]; ipsilateral paw, 3 mg/kg orally twice daily for 7 days from day of surgery, day 5 of treatment): 83.3 ± 5.7 g
Paw withdrawal threshold ([1]; ipsilateral paw, 3 mg/kg orally twice daily for 7 days from day of surgery, day 7 of treatment): 86.7 ± 4.8 g
Paw withdrawal threshold ([1]; ipsilateral paw, 3 mg/kg orally twice daily for 7 days from day of surgery, day 10 (3 days after end of dosing)): 90.0 ± 4.7 g
Paw withdrawal threshold ([1]; ipsilateral paw, 3 mg/kg orally twice daily for 7 days from day of surgery, pre-surgery (baseline)): 100.8 ± 2.4 g
Paw withdrawal threshold ([1]; ipsilateral paw, 30 mg/kg orally twice daily for 7 days from day of surgery, day 1 of treatment): 78.3 ± 2.8 g
Paw withdrawal threshold ([1]; ipsilateral paw, 30 mg/kg orally twice daily for 7 days from day of surgery, day 2 of treatment): 80.8 ± 4.0 g
Paw withdrawal threshold ([1]; ipsilateral paw, 30 mg/kg orally twice daily for 7 days from day of surgery, day 3 of treatment): 83.3 ± 4.9 g
Paw withdrawal threshold ([1]; ipsilateral paw, 30 mg/kg orally twice daily for 7 days from day of surgery, day 4 of treatment): 85.8 ± 4.4 g
Paw withdrawal threshold ([1]; ipsilateral paw, 30 mg/kg orally twice daily for 7 days from day of surgery, day 5 of treatment): 83.2 ± 3.1 g
Paw withdrawal threshold ([1]; ipsilateral paw, 30 mg/kg orally twice daily for 7 days from day of surgery, day 7 of treatment): 82.0 ± 5.8 g
Paw withdrawal threshold ([1]; ipsilateral paw, 30 mg/kg orally twice daily for 7 days from day of surgery, day 10 (3 days after end of dosing)): 86.0 ± 4.0 g
Paw withdrawal threshold ([1]; ipsilateral paw, 30 mg/kg orally twice daily for 7 days from day of surgery, pre-surgery (baseline)): 97.5 ± 2.1 g
withdrawal thresholds after repeated dosing ([1]; ipsilateral paw, orally twice daily for 7 days from day of surgery, vehicle approximately 60 g): 80 to 90 g
duration of the effect of the two doses ([2]; 30 mg/kg oral 1 h prior to and 5 h following surgery): approximately 7 days
degree of hyperalgesia (ipsilateral paw withdrawal thresholds versus vehicle) ([2]; 30 mg/kg oral 1 h prior to surgery and again 5 h following surgery): significant reduction in the degree of hyperalgesia
Paw withdrawal threshold ([2]; Compound A 30 mg/kg oral 1 h pre surgery + Compound A 5 h post, day 1 of study): 79.2 ± 2.4 g
Paw withdrawal threshold ([2]; Compound A 30 mg/kg oral 1 h pre surgery + Compound A 5 h post, day 2 of study): 81.7 ± 2.1 g
Paw withdrawal threshold ([2]; Compound A 30 mg/kg oral 1 h pre surgery + Compound A 5 h post, day 3 of study): 80.0 ± 2.2 g
Paw withdrawal threshold ([2]; Compound A 30 mg/kg oral 1 h pre surgery + Compound A 5 h post, day 4 of study): 77.5 ± 1.1 g
Paw withdrawal threshold ([2]; Compound A 30 mg/kg oral 1 h pre surgery + Compound A 5 h post, day 6 of study): 73.3 ± 3.1 g
Paw withdrawal threshold ([2]; Compound A 30 mg/kg oral 1 h pre surgery + Compound A 5 h post, day 7 of study): 70.8 ± 2.4 g
Paw withdrawal threshold ([2]; Compound A 30 mg/kg oral 1 h pre surgery + Compound A 5 h post, pre-surgery (baseline)): 101.7 ± 1.1 g
Paw withdrawal threshold ([2]; Compound A 30 mg/kg oral 1 h pre surgery + vehicle 5 h post, day 1 of study): 75.8 ± 2.4 g
Paw withdrawal threshold ([2]; Compound A 30 mg/kg oral 1 h pre surgery + vehicle 5 h post, day 2 of study): 69.2 ± 3.7 g
Paw withdrawal threshold ([2]; Compound A 30 mg/kg oral 1 h pre surgery + vehicle 5 h post, day 3 of study): 70.8 ± 2.0 g
Paw withdrawal threshold ([2]; Compound A 30 mg/kg oral 1 h pre surgery + vehicle 5 h post, day 4 of study): 67.5 ± 1.7 g
Paw withdrawal threshold ([2]; Compound A 30 mg/kg oral 1 h pre surgery + vehicle 5 h post, day 6 of study): 70.0 ± 2.2 g
Paw withdrawal threshold ([2]; Compound A 30 mg/kg oral 1 h pre surgery + vehicle 5 h post, day 7 of study): 65.0 ± 3.2 g
Paw withdrawal threshold ([2]; Compound A 30 mg/kg oral 1 h pre surgery + vehicle 5 h post, pre-surgery (baseline)): 105.0 ± 1.3 g
inhibition of hyperalgesia ([2]; single dose 1 h prior to surgery): significant inhibition of hyperalgesia only at 1 day post surgery
ipsilateral paw withdrawal threshold ([3]; 3 mg/kg orally twice daily for 10 days starting 7 days after ligation, day 1 of study): 62.5 ± 2.1 g
ipsilateral paw withdrawal threshold ([3]; 3 mg/kg orally twice daily for 10 days starting 7 days after ligation, day 2 of study): 68.3 ± 1.1 g
ipsilateral paw withdrawal threshold ([3]; 3 mg/kg orally twice daily for 10 days starting 7 days after ligation, day 3 of study): 67.5 ± 2.5 g
ipsilateral paw withdrawal threshold ([3]; 3 mg/kg orally twice daily for 10 days starting 7 days after ligation, day 4 of study): 80.0 ± 2.2 g
ipsilateral paw withdrawal threshold ([3]; 3 mg/kg orally twice daily for 10 days starting 7 days after ligation, day 5 of study): 80.0 ± 3.4 g
ipsilateral paw withdrawal threshold ([3]; 3 mg/kg orally twice daily for 10 days starting 7 days after ligation, day 6 of study): 80.8 ± 2.4 g
ipsilateral paw withdrawal threshold ([3]; 3 mg/kg orally twice daily for 10 days starting 7 days after ligation, day 7 of study): 80.8 ± 2.4 g
ipsilateral paw withdrawal threshold ([3]; 3 mg/kg orally twice daily for 10 days starting 7 days after ligation, day 8 of study): 80.8 ± 2.4 g
ipsilateral paw withdrawal threshold ([3]; 3 mg/kg orally twice daily for 10 days starting 7 days after ligation, day 9 of study): 75.8 ± 3.5 g
ipsilateral paw withdrawal threshold ([3]; 3 mg/kg orally twice daily for 10 days starting 7 days after ligation, day 10 of study): 81.7 ± 3.1 g
ipsilateral paw withdrawal threshold ([3]; 3 mg/kg orally twice daily for 10 days starting 7 days after ligation, day 11 of study): 76.7 ± 2.1 g
ipsilateral paw withdrawal threshold ([3]; 3 mg/kg orally twice daily for 10 days starting 7 days after ligation, day 12 of study): 78.3 ± 2.5 g
ipsilateral paw withdrawal threshold ([3]; 3 mg/kg orally twice daily for 10 days starting 7 days after ligation, day 13 of study): 79.2 ± 2.4 g
ipsilateral paw withdrawal threshold ([3]; 3 mg/kg orally twice daily for 10 days starting 7 days after ligation, day 14 of study): 75.8 ± 3.5 g
ipsilateral paw withdrawal threshold ([3]; 3 mg/kg orally twice daily for 10 days starting 7 days after ligation, day 15 of study): 76.7 ± 2.5 g
ipsilateral paw withdrawal threshold ([3]; 3 mg/kg orally twice daily for 10 days starting 7 days after ligation, day 18 of study): 75.8 ± 2.4 g
ipsilateral paw withdrawal threshold ([3]; 3 mg/kg orally twice daily for 10 days starting 7 days after ligation, day 21 of study): 74.2 ± 1.5 g
ipsilateral paw withdrawal threshold ([3]; 3 mg/kg orally twice daily for 10 days starting 7 days after ligation, day 23 of study): 70.0 ± 1.8 g
ipsilateral paw withdrawal threshold ([3]; 3 mg/kg orally twice daily for 10 days starting 7 days after ligation, predose): 65.8 ± 0.8 g
ipsilateral paw withdrawal threshold ([3]; 30 mg/kg orally twice daily for 10 days starting 7 days after ligation, day 1 of study): 68.3 ± 2.1 g
ipsilateral paw withdrawal threshold ([3]; 30 mg/kg orally twice daily for 10 days starting 7 days after ligation, day 2 of study): 68.3 ± 1.7 g
ipsilateral paw withdrawal threshold ([3]; 30 mg/kg orally twice daily for 10 days starting 7 days after ligation, day 3 of study): 71.7 ± 2.1 g
ipsilateral paw withdrawal threshold ([3]; 30 mg/kg orally twice daily for 10 days starting 7 days after ligation, day 4 of study): 78.3 ± 4.8 g
ipsilateral paw withdrawal threshold ([3]; 30 mg/kg orally twice daily for 10 days starting 7 days after ligation, day 5 of study): 84.2 ± 2.4 g
ipsilateral paw withdrawal threshold ([3]; 30 mg/kg orally twice daily for 10 days starting 7 days after ligation, day 6 of study): 84.2 ± 4.4 g
ipsilateral paw withdrawal threshold ([3]; 30 mg/kg orally twice daily for 10 days starting 7 days after ligation, day 7 of study): 83.3 ± 5.4 g
ipsilateral paw withdrawal threshold ([3]; 30 mg/kg orally twice daily for 10 days starting 7 days after ligation, day 8 of study): 83.3 ± 2.5 g
ipsilateral paw withdrawal threshold ([3]; 30 mg/kg orally twice daily for 10 days starting 7 days after ligation, day 9 of study): 79.2 ± 3.0 g
ipsilateral paw withdrawal threshold ([3]; 30 mg/kg orally twice daily for 10 days starting 7 days after ligation, day 10 of study): 85.0 ± 2.6 g
ipsilateral paw withdrawal threshold ([3]; 30 mg/kg orally twice daily for 10 days starting 7 days after ligation, day 11 of study): 82.5 ± 3.4 g
ipsilateral paw withdrawal threshold ([3]; 30 mg/kg orally twice daily for 10 days starting 7 days after ligation, day 12 of study): 80.8 ± 2.4 g
ipsilateral paw withdrawal threshold ([3]; 30 mg/kg orally twice daily for 10 days starting 7 days after ligation, day 13 of study): 80.0 ± 2.6 g
ipsilateral paw withdrawal threshold ([3]; 30 mg/kg orally twice daily for 10 days starting 7 days after ligation, day 14 of study): 78.3 ± 1.7 g
ipsilateral paw withdrawal threshold ([3]; 30 mg/kg orally twice daily for 10 days starting 7 days after ligation, day 15 of study): 78.3 ± 2.5 g
ipsilateral paw withdrawal threshold ([3]; 30 mg/kg orally twice daily for 10 days starting 7 days after ligation, day 18 of study): 77.5 ± 2.1 g
ipsilateral paw withdrawal threshold ([3]; 30 mg/kg orally twice daily for 10 days starting 7 days after ligation, day 21 of study): 81.7 ± 2.5 g
ipsilateral paw withdrawal threshold ([3]; 30 mg/kg orally twice daily for 10 days starting 7 days after ligation, day 23 of study): 77.5 ± 2.1 g
ipsilateral paw withdrawal threshold ([3]; 30 mg/kg orally twice daily for 10 days starting 7 days after ligation, predose): 66.7 ± 2.1 g
ipsilateral paw withdrawal thresholds compared to vehicle treated animals ([3]; after 4 days of drug treatment, 3 and 30 mg/kg orally twice daily): significant increase in ipsilateral paw withdrawal thresholds
persistence of increased thresholds following cessation of compound administration ([3]; at the higher dose (30 mg/kg)): up to 2 weeks
